Source: article PMC7468908 (Nutrients, 2020)
Where two headings read alike, the source gives them in different places.

What was measured:
BCRP = biological target: T1, BCRP (Homo sapiens, UniProt Q9UNQ0); experiment: BCRP vanadate sensitive ATPase activity in Sf9 membrane vesicles; assay type: biochemical; conditions: 3 mM Mg-ATP, 25 min, 37 °C
T1 construct: made in house; host or cells: Sf9 insect cells (baculovirus)
T1 sequence (Q9UNQ0 1-655): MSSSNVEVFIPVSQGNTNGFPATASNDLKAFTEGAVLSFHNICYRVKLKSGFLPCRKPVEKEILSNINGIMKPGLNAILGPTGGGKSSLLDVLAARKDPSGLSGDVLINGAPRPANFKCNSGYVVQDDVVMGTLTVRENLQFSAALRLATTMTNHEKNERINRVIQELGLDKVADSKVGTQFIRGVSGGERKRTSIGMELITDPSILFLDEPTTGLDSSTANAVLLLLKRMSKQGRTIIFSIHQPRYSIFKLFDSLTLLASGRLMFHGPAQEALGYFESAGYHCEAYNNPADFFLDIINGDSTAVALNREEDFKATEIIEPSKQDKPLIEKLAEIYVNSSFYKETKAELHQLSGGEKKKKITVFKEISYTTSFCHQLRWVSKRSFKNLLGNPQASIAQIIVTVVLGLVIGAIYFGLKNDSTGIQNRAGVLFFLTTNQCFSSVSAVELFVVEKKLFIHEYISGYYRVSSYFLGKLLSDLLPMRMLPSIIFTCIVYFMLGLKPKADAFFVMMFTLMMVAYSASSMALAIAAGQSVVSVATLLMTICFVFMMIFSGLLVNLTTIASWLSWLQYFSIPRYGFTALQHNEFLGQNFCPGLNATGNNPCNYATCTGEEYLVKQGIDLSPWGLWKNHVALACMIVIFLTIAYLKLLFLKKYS
Description: ATPase activity was measured on Sf9 membrane vesicles containing human BCRP prepared as described in 2.5. Appropriate amounts of vesicles (10 μg/50 μL) were used in the assays. Experimental parameters were the same as it has been earlier reported. Membrane vesicles were incubated with 3 mM of Mg-ATP for 25 min at 37 °C. Effects of flavonoids were investigated up to 50 μM. […] ABC transporter function was determined as vanadate sensitive ATPase activity. Liberated inorganic phosphate was measured by a colorimetric reaction as described. Absorbance of samples was measured after 25 min at 660 nm.

OATP1B3 = biological target: T2, OATP1B3 (Homo sapiens, UniProt Q9NPD5); experiment: OATP1B3-mediated pyranine uptake in A431 cells overexpressing OATP1B3; assay type: cell-based
T2 construct: host or cells: A431
T2 sequence (Q9NPD5 1-702): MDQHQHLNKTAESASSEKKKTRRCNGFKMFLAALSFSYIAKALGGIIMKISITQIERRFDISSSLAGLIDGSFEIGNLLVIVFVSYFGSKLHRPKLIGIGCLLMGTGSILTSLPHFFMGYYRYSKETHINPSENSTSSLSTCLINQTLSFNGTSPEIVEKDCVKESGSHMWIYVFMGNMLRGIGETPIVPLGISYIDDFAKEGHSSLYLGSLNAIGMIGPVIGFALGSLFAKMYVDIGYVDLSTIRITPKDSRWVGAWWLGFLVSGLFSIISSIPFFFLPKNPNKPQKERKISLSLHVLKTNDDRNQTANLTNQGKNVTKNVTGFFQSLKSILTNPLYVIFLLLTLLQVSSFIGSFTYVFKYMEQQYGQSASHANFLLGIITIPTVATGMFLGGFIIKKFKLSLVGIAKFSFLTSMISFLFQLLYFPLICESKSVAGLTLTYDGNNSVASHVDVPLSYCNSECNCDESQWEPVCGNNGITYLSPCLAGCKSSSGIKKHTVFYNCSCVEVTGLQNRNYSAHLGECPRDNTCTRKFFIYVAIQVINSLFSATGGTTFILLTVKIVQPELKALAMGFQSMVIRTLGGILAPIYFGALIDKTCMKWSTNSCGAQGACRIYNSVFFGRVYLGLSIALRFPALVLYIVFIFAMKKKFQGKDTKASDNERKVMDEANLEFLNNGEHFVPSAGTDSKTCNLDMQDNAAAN
Description: A431 cells overexpressing human OATPs, 1A2 (BC042452, HsCD00333163), 1B1 (Gene ID: AB026257), 1B3 (BC141525, HsCD00348132) or 2B1 (BC041095.1, HsCD00378878), or their mock transfected controls, were generated as previously described. Cells were cultured in Dulbecco’s Modified Eagle Medium (DMEM; Thermo Fischer Scientific, Waltham, MA, USA) supplemented with 10% fetal bovine serum, 2 mM L-glutamine, 100 units/mL penicillin and 100 µg/mL streptomycin, at 37 °C with 5% CO2.
Briefly, A431 cell overexpressing OATPs, 1A2, 1B1, 1B3 or 2B1, or their mock transfected controls, were seeded on 96-well plates in a density of 8x10^4 cells/well in 200 μL DMEM one day prior to the transport measurements. […] Thereafter, cells were incubated at 37°C for 15 min (OATP1B1 and OATP2B1), 10 min (OATP1A2), or 30 min (OATP1B3). The reactions were stopped by removing the supernatants, then the cells were washed three times with ice-cold PBS. […] OATP-dependent transport was calculated by extracting fluorescence measured in mock transfected cells. Transport activity was calculated based on the fluorescence signal in the absence (100%) of flavonoids. Experiments were repeated at least in three biological replicates. IC50 values were calculated by Hill1 fit, using the Origin Pro8.6 software ([…]).

CYP2D6 = biological target: T3, CYP2D6 (Homo sapiens, UniProt P10635); experiment: CYP2D6-catalyzed dextromethorphan O-demethylation (CypExpress kit, HPLC); assay type: biochemical; conditions: up to 30 μM flavonoid, substrate 5 µM dextromethorphan
T3 construct: purchased Sigma-Aldrich
Description: (§1) Inhibition of CYP2C19 [47], 3A4 [48], and 2D6 [49] by Q and its conjugates was tested based on our previously reported methods, without modifications.
(§2) S-mephenytoin and 4-hydroxymephenytoin (CYP2C19 assay), testosterone and 6β-hydroxytestosterone (CYP3A4 assay), as well as dextromethorphan and dextrorphan (CYP2D6 assay) were quantified using the previously described methods, with minor modifications.
In the CYP2D6 assay, samples were driven through a guard column (Security Guard C8, 4.0 × 3.0 mm; Phenomenex, Torrance, CA, USA) linked to an analytical column (Mediterranea Sea8 C8 150 × 4.6 mm; 5 µm; Teknokroma, Barcelona, Spain). The isocratic elution was performed with 1 mL/min flow rate at room temperature, the mobile phase contained acetonitrile and 6.9 mM sodium-acetate buffer (pH 4.0) (31:69 v/v%). Dextromethorphan and dextrorphan were detected at 280 nm.

CYP2C19 = biological target: T4, CYP2C19 (Homo sapiens, UniProt P33261); experiment: CYP2C19-catalyzed S-mephenytoin hydroxylation (CypExpress kit, HPLC); assay type: biochemical; conditions: for concentration inducing statistically significant (p < 0.01) decrease in metabolite formation, CYP2C19: substrate 5 µM S-mephenytoin
T4 construct: purchased Sigma-Aldrich
Description: as §1, §2
In CYP2C19 assay, the mobile phase contained acetonitrile, methanol (VWR), and sodium phosphate buffer (10 mM, pH 4.55) (17:10:73 v/v%). Samples were driven through a guard column (Phenomenex Security Guard C8, 4.0 × 3.0 mm) linked to an analytical column (Phenomenex C8 100 × 4.6 mm; 2.6 µm), with a 1 mL/min flow rate, at room temperature. After the isocratic elution, S-mephenytoin and 4-hydroxymephenytoin were detected at 230 nm.

[1] = 20 μM pyranine, 30 min, A431-OATP1B3 cells, read-out: IC50 for OATP1B3
[2] = S-mephenytoin hydroxylation, substrate 5 µM, read-out: IC50 for CYP2C19

T4 sequence (P33261 whole entry): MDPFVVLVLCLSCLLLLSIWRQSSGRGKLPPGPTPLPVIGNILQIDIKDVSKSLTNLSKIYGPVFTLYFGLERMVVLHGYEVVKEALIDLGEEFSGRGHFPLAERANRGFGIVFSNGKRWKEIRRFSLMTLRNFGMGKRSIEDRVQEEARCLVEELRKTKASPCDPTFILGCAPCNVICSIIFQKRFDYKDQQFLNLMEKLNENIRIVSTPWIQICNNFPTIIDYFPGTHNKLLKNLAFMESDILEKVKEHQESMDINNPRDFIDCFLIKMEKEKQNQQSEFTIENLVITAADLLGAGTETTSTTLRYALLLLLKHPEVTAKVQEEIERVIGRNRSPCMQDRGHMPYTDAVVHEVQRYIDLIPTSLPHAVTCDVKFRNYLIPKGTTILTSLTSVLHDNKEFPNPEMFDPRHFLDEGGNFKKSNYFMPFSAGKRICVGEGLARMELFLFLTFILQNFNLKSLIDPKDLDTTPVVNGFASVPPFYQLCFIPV
T3 sequence (P10635 whole entry): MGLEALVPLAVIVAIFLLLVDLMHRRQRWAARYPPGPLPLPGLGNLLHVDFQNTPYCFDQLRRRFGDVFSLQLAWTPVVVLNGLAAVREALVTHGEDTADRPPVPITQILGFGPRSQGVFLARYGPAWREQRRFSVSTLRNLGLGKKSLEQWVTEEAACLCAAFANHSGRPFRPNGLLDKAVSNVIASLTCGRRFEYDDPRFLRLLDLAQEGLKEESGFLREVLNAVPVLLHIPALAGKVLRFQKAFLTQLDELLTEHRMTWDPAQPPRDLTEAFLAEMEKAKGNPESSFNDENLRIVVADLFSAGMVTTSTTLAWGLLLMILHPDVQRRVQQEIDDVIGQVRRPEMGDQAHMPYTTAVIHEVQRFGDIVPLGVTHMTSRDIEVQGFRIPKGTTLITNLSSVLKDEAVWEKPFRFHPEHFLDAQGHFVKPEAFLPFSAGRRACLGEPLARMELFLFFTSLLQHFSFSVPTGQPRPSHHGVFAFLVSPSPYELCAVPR

Structure (SMILES) | concentration inducing statistically significant (p < 0.01) increase in ATPase activity of BCRP (BCRP) | concentration causing statistically significant (p < 0.01) inhibition, OATP1B3 (OATP1B3; 20 μM pyranine, 30 min) | IC50 (OATP1B3; [1]) | inhibition of CYP2D6 activity (CYP2D6) | IC50 (CYP2C19; [2]) | concentration inducing statistically significant (p < 0.01) decrease in metabolite formation, CYP2C19 (CYP2C19) | IC50 (OATP1B3) | IC50 (CYP2C19)
COc1cc(-c2oc3cc(O)cc(O)c3c(=O)c2OC2OC(C(=O)O)C(O)C(O)C2O)ccc1O (centres unmarked) [I3G, isorhamnetin-3-glucuronide] | 10 µM | 6.3 µM | 9.62 µM | did not affect | > 30 µM | 20 µM | – | –
COc1cc(-c2oc3cc(O)cc(O)c3c(=O)c2O)ccc1O [IR, isorhamnetin] | 0.02 µM | 3.1 µM | – | did not affect | – | 20 µM | 3.1 µM | > 30 µM
O=C(O)C1OC(Oc2c(-c3ccc(O)c(O)c3)oc3cc(O)cc(O)c3c2=O)C(O)C(O)C1O (centres unmarked) [Q3G, quercetin-3-glucuronide] | 50 µM | 3.1 µM | 5.71 µM | did not affect | > 30 µM | 20 µM | – | –
O=c1c(O)c(-c2ccc(O)c(OS(=O)(=O)O)c2)oc2cc(O)cc(O)c12 [Q3′S, quercetin-3′-sulfate] | 0.4 µM | 1.3 µM | 2.5 µM | did not affect | > 30 µM | 20 µM | – | –
O=c1c(O)c(-c2ccc(O)c(O)c2)oc2cc(O)cc(O)c12 [Q, quercetin] | 0.08 µM | 2.5 µM | 3.22 µM | did not affect | – | 10 µM | – | –
